Source: patent publication US10220072B2, “Mesalamine for the treatment of cancer” (Cipla Limited, priority 2016, dated 2019)
Where two headings read alike, the source gives them in different places. Values belong to the molecule of their own block, whether it stands above or below them.

Legend:
[1] = tested on: Human renal cell carcinoma cell line (A498); assay: In vivo anti-tumor efficacy in xenograft model; design: species or system female athymic nude mice
Description: Healthy 10 female athymic nude mice were recruited for the donor cell inoculation. Animals were subcutaneously injected at flank region with 10 million A498 cells suspended in 200 μl of media and matrigel. Animals were monitored for solid tumor growth. […] Tumors were fragmented in to ˜30 mg size. […] Tumor bearing animals were selected from the experimental animals and grouped on basis of tumor size, into six groups containing 7 animals in each group. […] Group 3 received mesalamine at 250 mg/kg. [table] The tumor sizes were measured weekly twice from the date of tumor appearance till the end of the experiment. Tumor size was measured by digital vernier caliper (MITUTOYO) by measuring length (L=longest axis) and width (W=shortest axis). […] From the tumor volume data mean tumor volume and % tumor growth inhibition (% TGI) were determined.

[2] = tested on: 10 human tumor xenograft-derived cell suspensions or tumor cell lines of renal cancer; assay: Clonogenic assay: ex vivo colony formation (anchorage independent growth) in semi-solid medium; format: cell-based; details: for IC50: Homo sapiens, mean across 10 renal cancer tumor models, test concentrations 0.0698 mM to 3 mM
Description: In the present study, mesalamine was characterized for their ability to inhibit anchorage independent growth and ex vivo colony formation of tumor cells in semi-solid medium. Mesalamine was tested against 10 human tumor xenograft-derived cell suspensions or tumor cell lines of renal cancer. Test concentrations ranged from 0.0698 mM to 3 mM.
Cell lines were routinely passaged one or twice weekly. All cells were grown at 37° C. in a humidified atmosphere with 5% CO2 in RPMI 1640 medium (Biochrom) supplemented with 10% (v/v) fetal calf serum and 0.1 mg/mL gentamicin. The percentage of viable cells was determined in a Neubauer-hemocytometer using trypan blue exclusion.
Tumor xenografts (patient-derived, as well as cell line-derived xenografts) were passaged as subcutaneous xenografts in NMRI nu/nu mice. At a tumor volume of 400-1000 mm^3 tumor-bearing mice were sacrificed and tumors were collected under sterile conditions without delay according to the relevant Oncotest SOPs and the relevant animal welfare guidelines published by the FELASA and the GV-SOLAS. Tumors were mechanically disaggregated and subsequently incubated with an enzyme cocktail consisting of collagenase type IV (41 U/mL), DNase I (125 U/mL), hyaluronidase type III (100 U/mL), and dispase II (1.0 U/mL) in RPMI 1640 medium (Life Technologies) at 37° C. for 60-120 minutes. Cells were passed through sieves of 100 μm and 40 μm mesh size (Cell Strainer, BD Falcon™), and washed with RPMI 1640 medium. The percentage of viable cells was determined in a Neubauer-hemocytometer using trypan blue exclusion. Aliquots of the cells were frozen down, and stored in liquid nitrogen. On each day of an experiment, a frozen aliquot of tumor cells was thawed and used for preparation of assay plates.
The clonogenic assay was carried out in a 96 well plate format using ultra low attachment plates. […] Cultures were incubated at 37° C. and 7.5% CO2 in a humidified atmosphere for 8 to 13 days and monitored closely for colony growth using an inverted microscope. […]

[3] = G3, 250 mg/kg p.o. q.d.x21, Day 1
[4] = G3, 250 mg/kg p.o. q.d.x21, Day 6
[5] = G3, 250 mg/kg p.o. q.d.x21, Day 9
[6] = G3, 250 mg/kg p.o. q.d.x21, Day 13
[7] = G3, 250 mg/kg p.o. q.d.x21, Day 16
[8] = G3, 250 mg/kg p.o. q.d.x21, Day 20
[9] = G2, 20 mg/kg p.o. q.d.x21 (sub-therapeutic dose), Day 1
[10] = G2, 20 mg/kg p.o. q.d.x21 (sub-therapeutic dose), Day 6
[11] = G2, 20 mg/kg p.o. q.d.x21 (sub-therapeutic dose), Day 9
[12] = G2, 20 mg/kg p.o. q.d.x21 (sub-therapeutic dose), Day 13
[13] = G2, 20 mg/kg p.o. q.d.x21 (sub-therapeutic dose), Day 16
[14] = G2, 20 mg/kg p.o. q.d.x21 (sub-therapeutic dose), Day 20

IC50 ([2]; continuous exposure 8 to 13 days, read-out: mean relative IC50 value, inhibition of colony formation): 1210 µM
IC50 ([2]; read-out: second mean IC50 value printed in brackets after the mean relative IC50): 1260 µM
Compound: Nc1ccc(O)c(C(=O)O)c1 [Mesalamine, 5-amino-2-hydroxybenzoic acid]
Mean Tumor Growth Inhibition (% TGI) [1, 3]: 1.56%
Mean Tumor Volume [1, 3]: 145.26 mm^3
Mean Tumor Growth Inhibition (% TGI) [1, 4]: 51.29%
Mean Tumor Volume [1, 4]: 161.68 mm^3
Mean Tumor Growth Inhibition (% TGI) [1, 5]: 46.01%
Mean Tumor Volume [1, 5]: 250.41 mm^3
Mean Tumor Growth Inhibition (% TGI) [1, 6]: 51.09%
Mean Tumor Volume [1, 6]: 301.82 mm^3
Mean Tumor Growth Inhibition (% TGI) [1, 7]: 47.87%
Mean Tumor Volume [1, 7]: 501.10 mm^3
Mean Tumor Growth Inhibition (% TGI) [1, 8]: 58.08%
Mean Tumor Volume [1, 8]: 536.78 mm^3
inhibiting tumor formation (anti-tumor efficacy by itself) ([1]; at the dose tested (250 mg/kg p.o. q.d.x21)): more than 50%
anti-tumor efficacy compared with standard ([1]; mesalamine 250 mg/kg vs sunitinib 20 mg/kg, p.o. q.d.x21): comparable to sunitinib
Bottom plateaus of the concentration-effect curves of responding tumor models ([2]; responding tumor models): 0 to 18%

Compound: CCN(CC)CCNC(=O)c1c(C)[nH]c(/C=C2\C(=O)Nc3ccc(F)cc32)c1C [Sunitinib]
Mean Tumor Growth Inhibition (% TGI) [1, 9]: 1.47%
Mean Tumor Volume [1, 9]: 145.40 mm^3
Mean Tumor Growth Inhibition (% TGI) [1, 10]: 47.31%
Mean Tumor Volume [1, 10]: 174.90 mm^3
Mean Tumor Growth Inhibition (% TGI) [1, 11]: 43.52%
Mean Tumor Volume [1, 11]: 261.95 mm^3
Mean Tumor Growth Inhibition (% TGI) [1, 12]: 44.80%
Mean Tumor Volume [1, 12]: 340.62 mm^3
Mean Tumor Growth Inhibition (% TGI) [1, 13]: 53.39%
Mean Tumor Volume [1, 13]: 448.05 mm^3
Mean Tumor Growth Inhibition (% TGI) [1, 14]: 50.78%
Mean Tumor Volume [1, 14]: 630.25 mm^3
